According to article PMC5078040 (Oncotarget, 2016):
pEC50, pIC50: −log10 of the molar value.

What was measured:
[1] = target: T1, ABL1(H396P)-nonphosphorylated (Homo sapiens, UniProt P00519, H396P); assay: KinomeScan; assay type: binding; conditions: 1uM
T1 construct: purchased DiscoveRx KINOMEscan

[2] = target: T2, FES (Homo sapiens, UniProt P07332); assay: KinomeScan; assay type: binding; conditions: 1uM
T2 construct: purchased DiscoveRx KINOMEscan

[3] = target: T3, PIM3 (Homo sapiens, UniProt Q86V86); assay: KinomeScan; assay type: binding; conditions: 1uM
T3 construct: purchased DiscoveRx KINOMEscan

[4] = target: T4, CDK4-cyclinD1 (Homo sapiens, UniProt P11802); assay: KinomeScan; assay type: binding; conditions: 1uM
T4 construct: purchased DiscoveRx KINOMEscan

[5] = target: T5, CDK9 (Homo sapiens, UniProt P50750); assay: KinomeScan; assay type: binding; conditions: 1uM
T5 construct: purchased DiscoveRx KINOMEscan
T5 sequence (P50750 whole entry): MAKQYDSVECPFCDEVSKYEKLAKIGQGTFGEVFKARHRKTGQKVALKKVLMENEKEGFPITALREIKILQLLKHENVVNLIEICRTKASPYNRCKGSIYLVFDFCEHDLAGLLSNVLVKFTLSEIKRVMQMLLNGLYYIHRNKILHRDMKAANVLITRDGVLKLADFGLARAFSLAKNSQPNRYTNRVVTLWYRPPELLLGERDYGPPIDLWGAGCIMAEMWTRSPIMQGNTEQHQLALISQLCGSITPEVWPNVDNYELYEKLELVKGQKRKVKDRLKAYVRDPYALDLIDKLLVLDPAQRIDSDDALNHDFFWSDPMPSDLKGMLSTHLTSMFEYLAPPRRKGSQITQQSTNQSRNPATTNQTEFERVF

[6] = target: T6, CAMK2G (Homo sapiens, UniProt Q13555); assay: KinomeScan; assay type: binding; conditions: 1uM
T6 construct: purchased DiscoveRx KINOMEscan

[7] = target: T7, IKK-beta (Homo sapiens, UniProt O14920); assay: KinomeScan; assay type: binding; conditions: 1uM
T7 construct: purchased DiscoveRx KINOMEscan

[8] = target: T8, ERK1 (Homo sapiens, UniProt P27361); assay: KinomeScan; assay type: binding; conditions: 1uM
T8 construct: purchased DiscoveRx KINOMEscan
T8 sequence (P27361 whole entry): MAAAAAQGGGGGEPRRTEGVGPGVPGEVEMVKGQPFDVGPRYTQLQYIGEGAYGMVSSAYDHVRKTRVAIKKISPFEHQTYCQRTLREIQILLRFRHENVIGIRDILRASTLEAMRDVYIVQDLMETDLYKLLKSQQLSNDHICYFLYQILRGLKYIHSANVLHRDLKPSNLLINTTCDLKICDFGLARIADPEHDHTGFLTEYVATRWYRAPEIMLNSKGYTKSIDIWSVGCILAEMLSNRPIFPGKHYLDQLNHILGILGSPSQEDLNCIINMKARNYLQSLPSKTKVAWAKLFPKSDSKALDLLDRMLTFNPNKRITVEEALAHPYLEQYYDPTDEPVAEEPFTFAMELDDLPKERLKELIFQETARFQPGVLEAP

[9] = target: T9, SIK (Homo sapiens, UniProt P57059); assay: KinomeScan; assay type: binding; conditions: 1uM
T9 construct: purchased DiscoveRx KINOMEscan

[10] = target: T10, EPHA6 (Homo sapiens, UniProt Q9UF33); assay: KinomeScan; assay type: binding; conditions: 1uM
T10 construct: purchased DiscoveRx KINOMEscan

[11] = target: T11, PIP5K1C (Homo sapiens, UniProt O60331); assay: KinomeScan; assay type: binding; conditions: 1uM
T11 construct: purchased DiscoveRx KINOMEscan
T11 sequence (O60331 whole entry): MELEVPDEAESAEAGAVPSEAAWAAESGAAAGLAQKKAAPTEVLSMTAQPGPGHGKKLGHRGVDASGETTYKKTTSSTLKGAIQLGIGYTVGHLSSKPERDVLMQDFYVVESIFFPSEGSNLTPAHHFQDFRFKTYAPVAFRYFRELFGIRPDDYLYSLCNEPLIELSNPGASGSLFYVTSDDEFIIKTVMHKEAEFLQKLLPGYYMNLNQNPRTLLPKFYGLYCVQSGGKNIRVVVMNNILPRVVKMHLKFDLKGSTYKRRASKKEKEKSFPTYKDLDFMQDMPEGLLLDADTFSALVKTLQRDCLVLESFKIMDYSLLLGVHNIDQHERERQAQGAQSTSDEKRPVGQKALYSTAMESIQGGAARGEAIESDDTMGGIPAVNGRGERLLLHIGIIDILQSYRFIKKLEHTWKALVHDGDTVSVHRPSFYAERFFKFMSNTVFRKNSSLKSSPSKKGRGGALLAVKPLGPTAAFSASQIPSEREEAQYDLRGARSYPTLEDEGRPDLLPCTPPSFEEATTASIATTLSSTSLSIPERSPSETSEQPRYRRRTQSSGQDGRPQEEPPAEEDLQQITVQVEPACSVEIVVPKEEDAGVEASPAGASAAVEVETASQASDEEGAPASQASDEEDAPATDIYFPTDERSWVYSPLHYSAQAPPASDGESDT

[12] = target: T12, CIT (Homo sapiens, UniProt O14578); assay: KinomeScan; assay type: binding; conditions: 1uM
T12 construct: purchased DiscoveRx KINOMEscan

[13] = target: T13, RET(V804L) (Homo sapiens, UniProt P07949, V804L); assay: KinomeScan; assay type: binding; conditions: 1uM
T13 construct: purchased DiscoveRx KINOMEscan

[14] = target: T14, CSF1R (Homo sapiens, UniProt P07333); assay: KinomeScan; assay type: binding; conditions: 1uM
T14 construct: purchased DiscoveRx KINOMEscan
T14 sequence (P07333 20-972): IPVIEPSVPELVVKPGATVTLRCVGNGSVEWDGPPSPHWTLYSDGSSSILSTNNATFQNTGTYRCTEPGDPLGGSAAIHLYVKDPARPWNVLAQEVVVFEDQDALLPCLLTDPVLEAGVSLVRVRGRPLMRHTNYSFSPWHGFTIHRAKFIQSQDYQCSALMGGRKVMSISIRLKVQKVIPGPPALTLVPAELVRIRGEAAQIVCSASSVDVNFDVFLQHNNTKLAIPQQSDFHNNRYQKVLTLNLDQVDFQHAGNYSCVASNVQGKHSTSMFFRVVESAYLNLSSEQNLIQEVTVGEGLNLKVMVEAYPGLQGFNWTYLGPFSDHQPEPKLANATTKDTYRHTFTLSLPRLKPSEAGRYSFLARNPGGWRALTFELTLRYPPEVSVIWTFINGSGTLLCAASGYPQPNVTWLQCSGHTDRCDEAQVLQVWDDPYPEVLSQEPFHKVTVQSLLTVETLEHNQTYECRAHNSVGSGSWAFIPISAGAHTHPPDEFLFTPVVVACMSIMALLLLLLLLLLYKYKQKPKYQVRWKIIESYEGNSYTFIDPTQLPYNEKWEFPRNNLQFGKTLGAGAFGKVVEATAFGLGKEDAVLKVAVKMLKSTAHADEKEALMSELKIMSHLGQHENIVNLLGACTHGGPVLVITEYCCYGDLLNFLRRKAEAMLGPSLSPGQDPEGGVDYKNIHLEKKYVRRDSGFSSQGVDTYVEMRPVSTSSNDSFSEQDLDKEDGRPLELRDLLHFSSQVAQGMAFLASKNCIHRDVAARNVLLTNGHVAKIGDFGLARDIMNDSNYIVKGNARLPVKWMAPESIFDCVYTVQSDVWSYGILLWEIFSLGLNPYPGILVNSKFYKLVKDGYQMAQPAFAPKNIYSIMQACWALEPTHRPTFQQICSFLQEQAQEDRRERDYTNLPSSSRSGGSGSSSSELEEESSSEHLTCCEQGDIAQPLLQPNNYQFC

[15] = target: T15, PRKCI (Homo sapiens, UniProt P41743); assay: KinomeScan; assay type: binding; conditions: 1uM
T15 construct: purchased DiscoveRx KINOMEscan

[16] = tested on: SKM-1; assay: Anti-proliferative assay; assay type: cell-based; conditions: Homo sapiens; SKM-1, AML-M5; 72 hours, CellTiter-Glo
Experimental: Cells were grown in 96-well culture plates (3000-4000/well). […] Cell proliferation was determined after treatment with compounds for 72 hours. Cell viability was measured using the CellTiter–Glo Assay Kit (Promega, USA), according to the manufacturer's instructions, and luminescence was measured in a multi-label reader (Envision, PerkinElmer, USA). Data were normalized to control groups (DMSO) and represented by the mean of three independent measurements with standard error <20%. GI50 values were calculated using Prism 5.0 (GraphPad Software, San Diego, CA).

[17] = target: T16, TYRO3 (Homo sapiens, UniProt Q06418); assay: KinomeScan; assay type: binding; conditions: 1uM
T16 construct: purchased DiscoveRx KINOMEscan

[18] = target: T17, CDK2 (Homo sapiens, UniProt P24941); assay: KinomeScan; assay type: binding; conditions: 1uM
T17 construct: purchased DiscoveRx KINOMEscan

[19] = target: T18, PAK4 (Homo sapiens, UniProt O96013); assay: KinomeScan; assay type: binding; conditions: 1uM
T18 construct: purchased DiscoveRx KINOMEscan

[20] = target: PI3Kα (Homo sapiens, UniProt P42336); assay: biochemical
Experimental: The reaction in each tube was started immediately by adding ATP and kept going for an hour under 37°C. After the tube cooled for 5 minutes at room temperature, 5 μL solvent reactions were carried out in a 384-well plate. Then 5 μL of ADP-Glo™ reagent was added into each well to stop the reaction and consume the remaining ADP within 40 minutes. At the end, 10 μL of kinase detection reagent was added into the well and incubated for 30 minutes to produce a luminescence signal. Luminescence signal was measured with an automated plate reader (Perkin-Elmer Envision) and each measurement was performed in triplicate.

[21] = target: T19, NEK3 (Homo sapiens, UniProt P51956); assay: KinomeScan; assay type: binding; conditions: 1uM
T19 construct: purchased DiscoveRx KINOMEscan

[22] = target: T20, LIMK2 (Homo sapiens, UniProt P53671); assay: KinomeScan; assay type: binding; conditions: 1uM
T20 construct: purchased DiscoveRx KINOMEscan

[23] = target: T21, JNK2 (Homo sapiens, UniProt P45984); assay: KinomeScan; assay type: binding; conditions: 1uM
T21 construct: purchased DiscoveRx KINOMEscan
T21 sequence (P45984 whole entry): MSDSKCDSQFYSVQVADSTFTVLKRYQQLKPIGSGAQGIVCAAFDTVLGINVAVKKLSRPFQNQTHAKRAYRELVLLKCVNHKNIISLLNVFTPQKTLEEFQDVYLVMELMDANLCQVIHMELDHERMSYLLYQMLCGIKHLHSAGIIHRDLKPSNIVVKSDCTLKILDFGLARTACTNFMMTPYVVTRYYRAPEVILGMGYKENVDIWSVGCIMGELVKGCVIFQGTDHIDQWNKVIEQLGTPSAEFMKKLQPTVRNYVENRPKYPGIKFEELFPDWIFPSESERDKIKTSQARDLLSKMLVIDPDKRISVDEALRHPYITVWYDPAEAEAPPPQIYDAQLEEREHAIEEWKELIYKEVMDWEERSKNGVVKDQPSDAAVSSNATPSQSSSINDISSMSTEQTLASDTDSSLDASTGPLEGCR

[24] = target: T22, IGF1R (Homo sapiens, UniProt P08069); assay: KinomeScan; assay type: binding; conditions: 1uM
T22 construct: purchased DiscoveRx KINOMEscan
T22 sequence (P08069 31-1367): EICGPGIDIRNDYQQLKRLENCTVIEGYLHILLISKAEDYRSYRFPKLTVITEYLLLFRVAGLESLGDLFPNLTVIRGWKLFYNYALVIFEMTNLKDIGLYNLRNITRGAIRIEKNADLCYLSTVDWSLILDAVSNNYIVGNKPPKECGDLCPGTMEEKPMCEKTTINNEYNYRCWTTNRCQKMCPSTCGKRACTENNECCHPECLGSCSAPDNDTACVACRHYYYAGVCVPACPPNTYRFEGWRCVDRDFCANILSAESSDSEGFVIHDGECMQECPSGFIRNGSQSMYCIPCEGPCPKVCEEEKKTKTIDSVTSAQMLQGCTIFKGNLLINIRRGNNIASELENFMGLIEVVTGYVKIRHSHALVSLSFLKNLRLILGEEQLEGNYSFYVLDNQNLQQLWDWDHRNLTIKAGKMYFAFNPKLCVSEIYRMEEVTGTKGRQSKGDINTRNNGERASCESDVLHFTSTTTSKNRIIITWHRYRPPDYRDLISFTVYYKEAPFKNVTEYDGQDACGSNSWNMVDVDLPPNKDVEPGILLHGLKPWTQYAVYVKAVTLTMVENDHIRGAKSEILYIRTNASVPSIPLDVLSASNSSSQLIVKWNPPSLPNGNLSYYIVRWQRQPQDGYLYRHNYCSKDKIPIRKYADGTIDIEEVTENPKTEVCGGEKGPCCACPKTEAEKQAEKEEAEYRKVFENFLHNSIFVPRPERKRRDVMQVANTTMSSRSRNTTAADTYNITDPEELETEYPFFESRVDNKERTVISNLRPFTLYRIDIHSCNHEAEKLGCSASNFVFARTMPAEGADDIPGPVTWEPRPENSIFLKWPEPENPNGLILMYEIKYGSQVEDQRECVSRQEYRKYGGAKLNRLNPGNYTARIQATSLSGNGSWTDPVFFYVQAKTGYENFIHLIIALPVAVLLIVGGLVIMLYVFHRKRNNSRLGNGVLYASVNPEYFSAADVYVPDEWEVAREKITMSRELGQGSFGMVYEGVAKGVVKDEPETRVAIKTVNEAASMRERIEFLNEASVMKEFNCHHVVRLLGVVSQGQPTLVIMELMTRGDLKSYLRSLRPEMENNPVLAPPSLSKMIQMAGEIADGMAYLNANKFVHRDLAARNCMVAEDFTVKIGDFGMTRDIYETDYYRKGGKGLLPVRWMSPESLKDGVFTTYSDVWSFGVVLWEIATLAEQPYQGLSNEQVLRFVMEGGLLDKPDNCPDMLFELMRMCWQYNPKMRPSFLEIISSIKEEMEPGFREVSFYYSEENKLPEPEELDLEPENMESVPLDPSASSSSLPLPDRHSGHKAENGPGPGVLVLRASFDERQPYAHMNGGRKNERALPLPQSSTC

[25] = target: T23, CSNK1G2 (Homo sapiens, UniProt P78368); assay: KinomeScan; assay type: binding; conditions: 1uM
T23 construct: purchased DiscoveRx KINOMEscan

[26] = target: T24, PRKD1 (Homo sapiens, UniProt Q15139); assay: KinomeScan; assay type: binding; conditions: 1uM
T24 construct: purchased DiscoveRx KINOMEscan

[27] = tested on: 4EBP1 phosphorylation; assay: Signaling pathway effect examination (western blotting); assay type: cell-based, human; conditions: all of the cell lines
Experimental: (§1) The cells were collected and lysed, and cell lysates were analyzed by western blotting.

[28] = tested on: phosphorylation of Akt at both Thr308 and Ser473; assay: as above; assay type: cell-based, human; conditions: 1 hour
Experimental: as §1

[29] = tested on: phosphorylation of PRAS40 GSK3b and FOXO1; assay: as above; assay type: cell-based, human; conditions: B-cell malignant cell lines
Experimental: as §1

[30] = tested on: NF-kB P65 phosphorylation; assay: as above; assay type: cell-based, human; conditions: any of the tested cell lines
Experimental: as §1

[31] = tested on: Erk phosphorylation; assay: as above; assay type: cell-based, human
Experimental: as §1

[32] = target: T25, RIPK4 (Homo sapiens, UniProt P57078); assay: KinomeScan; assay type: binding; conditions: 1uM
T25 construct: purchased DiscoveRx KINOMEscan

[33] = target: T26, PAK1 (Homo sapiens, UniProt Q13153); assay: KinomeScan; assay type: binding; conditions: 1uM
T26 construct: purchased DiscoveRx KINOMEscan
T26 sequence (Q13153 whole entry): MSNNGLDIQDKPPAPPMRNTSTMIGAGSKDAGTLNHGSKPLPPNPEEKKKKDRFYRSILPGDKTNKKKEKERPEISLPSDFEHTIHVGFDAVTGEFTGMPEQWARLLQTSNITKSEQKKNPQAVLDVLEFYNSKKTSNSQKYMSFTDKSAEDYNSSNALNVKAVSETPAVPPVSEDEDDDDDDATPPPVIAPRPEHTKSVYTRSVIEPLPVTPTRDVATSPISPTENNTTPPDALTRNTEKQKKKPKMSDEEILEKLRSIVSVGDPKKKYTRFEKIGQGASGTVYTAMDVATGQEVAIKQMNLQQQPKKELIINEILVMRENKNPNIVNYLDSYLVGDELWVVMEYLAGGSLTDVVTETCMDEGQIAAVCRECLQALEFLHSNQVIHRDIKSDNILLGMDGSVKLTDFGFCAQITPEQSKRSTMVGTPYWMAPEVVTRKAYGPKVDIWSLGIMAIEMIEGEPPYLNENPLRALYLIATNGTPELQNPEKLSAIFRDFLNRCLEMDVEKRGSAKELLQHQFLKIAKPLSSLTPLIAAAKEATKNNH

[34] = target: T27, TIE1 (Homo sapiens, UniProt P35590); assay: KinomeScan; assay type: binding; conditions: 1uM
T27 construct: purchased DiscoveRx KINOMEscan

[35] = target: T28, ULK3 (Homo sapiens, UniProt Q6PHR2); assay: KinomeScan; assay type: binding; conditions: 1uM
T28 construct: purchased DiscoveRx KINOMEscan

[36] = target: T29, CLK2 (Homo sapiens, UniProt P49760); assay: KinomeScan; assay type: binding; conditions: 1uM
T29 construct: purchased DiscoveRx KINOMEscan

[37] = target: T30, BMPR2 (Homo sapiens, UniProt Q13873); assay: KinomeScan; assay type: binding; conditions: 1uM
T30 construct: purchased DiscoveRx KINOMEscan

[38] = target: T31, HIPK2 (Homo sapiens, UniProt Q9H2X6); assay: KinomeScan; assay type: binding; conditions: 1uM
T31 construct: purchased DiscoveRx KINOMEscan

[39] = target: T32, YANK2 (Homo sapiens, UniProt Q9NY57); assay: KinomeScan; assay type: binding; conditions: 1uM
T32 construct: purchased DiscoveRx KINOMEscan

Cc1nc(NC(=O)[C@@H](N)C(C)C)sc1-c1cnc(Cl)c(NS(=O)(=O)c2ccccc2)c1 [PI3KD-IN-015]
KinomeScan ABL1(H396P)-nonphosphorylated [1]: 100 | KinomeScan FES [2]: 100 | KinomeScan PIM3 [3]: 100 | KinomeScan CDK4-cyclinD1 [4]: 90 | KinomeScan CDK9 [5]: 100 | KinomeScan CAMK2G [6]: 100 | KinomeScan IKK-beta [7]: 100 | KinomeScan ERK1 [8]: 100 | KinomeScan SIK [9]: 99 | KinomeScan EPHA6 [10]: 100 | KinomeScan PIP5K1C [11]: 72 | KinomeScan CIT [12]: 100 | KinomeScan RET(V804L) [13]: 97 | KinomeScan CSF1R [14]: 67 | KinomeScan PRKCI [15]: 100 | GI50 [16]: 2600 nM | KinomeScan TYRO3 [17]: 100 | KinomeScan CDK2 [18]: 88 | KinomeScan PAK4 [19]: 100 | pIC50 [20]: 7.22 | KinomeScan NEK3 [21]: 100 | KinomeScan LIMK2 [22]: 100 | KinomeScan JNK2 [23]: 100 | KinomeScan IGF1R [24]: 100 | KinomeScan CSNK1G2 [25]: 100 | KinomeScan PRKD1 [26]: 100 | 4EBP1 phosphorylation [27]: not changed at all | pEC50 ([28]; Homo sapiens, CLL cell, HS505T (CLL) cells): > 6.00 | pEC50 ([28]; Homo sapiens, HT (B-NHL) cells): > 6.00 | pEC50 ([28]; Homo sapiens, MOLM-13 (AML) cells): > 6.00 | pEC50 ([28]; MEC-1 (CLL) cells): > 6.00 | pEC50 ([28]; MEC-2 (CLL) cells): > 6.00 | pEC50 ([28]; Namalwa (Burkitt Lymphoma) cells): > 6.00 | phosphorylation of Akt substrates PRAS40 GSK3b and FOXO1 [29]: decreased phosphorylation | NF-kB P65 phosphorylation [30]: not inhibited | Erk phosphorylation ([31]; MOLM13 and HT cells): not in MOLM13 and HT | Erk phosphorylation ([31]; Namalwa, MEC-1, MEC-2 and HS505T cells): reduced | KinomeScan RIPK4 [32]: 100 | KinomeScan PAK1 [33]: 100 | KinomeScan TIE1 [34]: 94 | KinomeScan ULK3 [35]: 88 | KinomeScan CLK2 [36]: 90 | KinomeScan BMPR2 [37]: 96 | KinomeScan HIPK2 [38]: 100 | KinomeScan YANK2 [39]: 99
